target: T1, human glucagon receptor (Homo sapiens, UniProt P47871); experiment: Glucagon binding inhibitory activity ([125I]-glucagon binding to glucagon receptor membrane protein); conditions: human glucagon receptor membrane protein, [125I]-glucagon, 90 min room temperature
T1 construct: made in house; host or cells: FreeStyle CHO cells, transient transfection with pMSRαneo/hGCGR; membrane fraction (35,000 rpm pellet)
How it was run: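 Receptor source was a membrane fraction of transiently transfected CHO cells bearing human receptor; 90 min room-temperature binding, filtration harvest, scintillation counting.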

T1 sequence (P47871 26-477): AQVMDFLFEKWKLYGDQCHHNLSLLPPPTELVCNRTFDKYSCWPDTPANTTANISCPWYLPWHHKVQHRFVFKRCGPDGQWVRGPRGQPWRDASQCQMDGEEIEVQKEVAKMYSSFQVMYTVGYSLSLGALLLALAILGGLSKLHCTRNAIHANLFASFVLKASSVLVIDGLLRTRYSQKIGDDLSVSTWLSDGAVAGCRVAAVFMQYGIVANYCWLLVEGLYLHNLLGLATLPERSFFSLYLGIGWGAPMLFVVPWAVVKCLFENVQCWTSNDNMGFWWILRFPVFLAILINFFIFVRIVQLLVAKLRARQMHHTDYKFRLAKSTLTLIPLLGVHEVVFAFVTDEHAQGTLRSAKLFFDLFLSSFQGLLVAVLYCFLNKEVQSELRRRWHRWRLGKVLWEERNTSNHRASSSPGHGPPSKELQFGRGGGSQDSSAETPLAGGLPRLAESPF

Row | IC50 [nM] | Structure (SMILES)
1 | 210 | O=C(O)CCNC(=O)c1ccc(NC(c2cc3ccc(C(F)(F)F)cc3s2)C2CCCCC2)cc1 (stereo not shown) [Example A12, 3-({[4-({cyclohexyl[6-(trifluoromethyl)-1-benzothiophen-2-yl]methyl}amino)phenyl]carbonyl}amino)propanoic acid]

same assay, conditions: test compound 10 μM; 0.4% DMSO = 0%, non-labeled glucagon 1 μM = 100%

Row | inhibitory rate (%) at 10 μM [%] | Structure (SMILES)
2 | 92 | COCCOc1ccc2oc(C(Nc3ccc(C(=O)N(C)CCC(=O)O)cc3)C3CCCCC3)c(C)c2c1 (stereo not shown) [Example A80, 3-[{[4-({cyclohexyl[5-(2-methoxyethoxy)-3-methyl-1-benzofuran-2-yl]methyl}amino)phenyl]carbonyl}(methyl)amino]propanoic acid]

same assay, conditions: test compound 10 μM; 0.4% DMSO = 0%, non-labeled glucagon 1 μM = 100%; read-out: inhibitory rate (%) at 10 μM

Row | inhibition at 10 µM [%] | Structure (SMILES)
3 | 71 | COCc1nn(-c2cccc(C(F)(F)F)n2)cc1C(Nc1ccc(C(=O)NCCC(=O)O)cc1)C1CCCCC1 (stereo not shown) [Example 91, 3-[({4-[(cyclohexyl{3-(methoxymethyl)-1-[6-(trifluoromethyl)pyridin-2-yl]-1H-pyrazol-4-yl}methyl)amino]phenyl}carbonyl)amino]propanoic acid]
4 | 73 | CCCc1nn(-c2ccc(C(F)(F)F)cn2)cc1C(Nc1ccc(C(=O)NCCC(=O)O)cc1)C1CCCCC1 (stereo not shown) [Example 5, 3-[({4-[(cyclohexyl{3-propyl-1-[5-(trifluoromethyl)pyridin-2-yl]-1H-pyrazol-4-yl}methyl)amino]phenyl}carbonyl)amino]propanoic acid]
5 | 96 | Cc1c(C(Nc2ccc(C(=O)N(C)CCC(=O)O)cc2)C2CCCCC2)oc2ccc(-c3ccccc3)cc12 (stereo not shown) [Example A176, 3-{[(4-{[cyclohexyl(3-methyl-5-phenyl-1-benzofuran-2-yl)methyl]amino}phenyl)carbonyl](methyl)amino}propanoic acid]
6 | 72 | COc1cccc2cc(C(Nc3ccc(C(=O)NCCC(=O)O)cc3)C3CCCCC3)oc12 (stereo not shown) [Example A20, 3-{[(4-{[cyclohexyl(7-methoxy-1-benzofuran-2-yl)methyl]amino}phenyl)carbonyl]amino}propanoic acid]
7 | 76 | Cc1c(C(Nc2ccc(C(=O)N(C)CCC(=O)O)cc2)C2CCCCC2)oc2ccc(OCCCS(C)(=O)=O)cc12 (stereo not shown) [Example A152, 3-[({4-[(cyclohexyl{3-methyl-5-[3-(methylsulfonyl)propoxy]-1-benzofuran-2-yl}methyl)amino]phenyl}carbonyl)(methyl)amino]propanoic acid]
8 | 72 | Cc1c(C(Nc2ccc(C(=O)N(C)CCC(=O)O)cc2)C(C)C)oc2ccc(F)cc12 (stereo not shown) [Example A192]
9 | 78 | Cc1c(C(Nc2ccc(C(=O)NCCC(=O)O)cc2)C2CCCCC2)oc2ccc(F)cc12 (stereo not shown) [Example A39, 3-{[(4-{[cyclohexyl(5-fluoro-3-methyl-1-benzofuran-2-yl)methyl]amino}phenyl)carbonyl]amino}propanoic acid]
10 | 84 | Cc1c(C(Nc2ccc(C(=O)N(C)CCC(=O)O)cc2)C2CCCC2)sc2ccccc12 (stereo not shown) [Example A64, 3-{[(4-{[cyclopentyl(3-methyl-1-benzothiophen-2-yl)methyl]amino}phenyl)carbonyl](methyl)amino}propanoic acid]
11 | 74 | Cc1c(C(Nc2ccc(C(=O)NCCC(=O)O)cc2)C2CCCCC2)oc2ccc(OCCCS(C)(=O)=O)cc12 (stereo not shown) [Example A153, 3-[({4-[(cyclohexyl{3-methyl-5-[3-(methylsulfonyl)propoxy]-1-benzofuran-2-yl}methyl)amino]phenyl}carbonyl)amino]propanoic acid]
12 | 85 | Cc1c(C(Nc2ccc(C(=O)NCCC(=O)O)cc2)C2CCCCC2)oc2cccnc12 (stereo not shown) [Example A112, 3-{[(4-{[cyclohexyl(3-methylfuro[3,2-b]pyridin-2-yl)methyl]amino}phenyl)carbonyl]amino}propanoic acid]
13 | 66 | COc1ccc(-n2cc(C(Nc3ccc(C(=O)N(C)CCC(=O)O)cc3)C3CCCCC3)c(C3CC3)n2)cc1 (stereo not shown) [Example 47, 3-[{[4-({cyclohexyl[3-cyclopropyl-1-(4-methoxyphenyl)-1H-pyrazol-4-yl]methyl}amino)phenyl]carbonyl}(methyl)amino]propanoic acid]
14 | 82 | Cc1c(C(Nc2ccc(C(=O)N(C)CCC(=O)O)cc2)C2CCCCC2)oc2ccc(NC(=O)c3ccccc3)cc12 (stereo not shown) [Example A129, 3-[({4-[(cyclohexyl{3-methyl-5-[(phenylcarbonyl)amino]-1-benzofuran-2-yl]methyl)amino}phenyl]carbonyl)(methyl)amino}propanoic acid]
15 | 69 | CCCCCCC(Nc1ccc(C(=O)NCCC(=O)O)cc1)c1cc2cc(Cl)ccc2n1-c1cccc(C(F)(F)F)c1 (stereo not shown) [Example A106, 3-[({4-[(1-{5-chloro-1-[3-(trifluoromethyl)phenyl]-1H-indol-2-yl}heptyl)amino]phenyl}carbonyl)amino]propanoic acid]
16 | 90 | Cc1c(C(Nc2ccc(C(=O)NCCC(=O)O)cc2)C2CCCC2)sc2ccccc12 (stereo not shown) [Example A63, 3-{[(4-{[cyclopentyl(3-methyl-1-benzothiophen-2-yl)methyl]amino}phenyl)carbonyl]amino}propanoic acid]
17 | 82 | Cc1c(C(Nc2ccc(C(=O)N(C)CCC(=O)O)nc2)C(C)C)oc2ccc(OCc3ccccc3)cc12 (stereo not shown) [Example A172, 3-[{[5-({1-[5-(benzyloxy)-3-methyl-1-benzofuran-2-yl]-2-methylpropyl}amino)pyridin-2-yl]carbonyl}(methyl)amino]propanoic acid]
18 | 74 | CCCCCCC(Nc1ccc(C(=O)N(C)CCC(=O)O)cc1)c1cc2cc(Cl)ccc2n1-c1cccc(C(F)(F)F)c1 (stereo not shown) [Example A107, 3-[({4-[(1-{5-chloro-1-[3-(trifluoromethyl)phenyl]-1H-indol-2-yl}heptyl)amino]phenyl}carbonyl)(methyl)amino]propanoic acid]
19 | 76 | Cc1c(C(Nc2ccc(C(=O)N(C)CCC(=O)O)nc2)C2CCCCC2)oc2ccc(F)cc12 (stereo not shown) [Example A56, 3-{[(5-{[cyclohexyl(5-fluoro-3-methyl-1-benzofuran-2-yl)methyl]amino}pyridin-2-yl)carbonyl](methyl)amino}propanoic acid]
20 | 61 | CCn1nc(-c2ccc(OC(F)(F)F)cc2)cc1C(CC(C)C)Nc1ccc(C(=O)N(C)CCC(=O)O)cc1 (stereo not shown) [Example 59, 3-[({4-[(1-{1-ethyl-3-[4-(trifluoromethoxy)phenyl]-1H-pyrazol-5-yl}-3-methylbutyl)amino]phenyl}carbonyl)(methyl)amino]propanoic acid]
21 | 72 | CC(C)c1nn(-c2ccc(C(F)(F)F)cn2)cc1C(Nc1ccc(C(=O)NCCC(=O)O)cc1)C1CCCCC1 (stereo not shown) [Example 7, 3-[({4-[(cyclohexyl{3-(1-methylethyl)-1-[5-(trifluoromethyl)pyridin-2-yl]-1H-pyrazol-4-yl}methyl)amino]phenyl}carbonyl)amino]propanoic acid]
22 | 95 | COc1ccc(-c2ccc3oc(C(Nc4ccc(C(=O)N(C)CCC(=O)O)cc4)C(C)C)c(C)c3c2)cn1 (stereo not shown) [Example A182, 3-[{[4-({1-[5-(6-methoxypyridin-3-yl)-3-methyl-1-benzofuran-2-yl]-2-methylpropyl}amino)phenyl]carbonyl}(methyl)amino]propanoic acid]
23 | 60 | COc1ccc(-n2cc(C(CC(C)C)Nc3ccc(C(=O)N(C)CCC(=O)O)cc3)c(C3CC3)n2)cc1 (stereo not shown) [Example 45, 3-[{[4-({1-[3-cyclopropyl-1-(4-methoxyphenyl)-1H-pyrazol-4-yl]-3-methylbutyl}amino)phenyl]carbonyl}(methyl)amino]propanoic acid]
24 | 72 | O=C(O)CCNC(=O)c1ccc(NC(c2cc3ccc(C(F)(F)F)cc3s2)C2CCCCC2)cc1 (stereo not shown) [Example A12, 3-({[4-({cyclohexyl[6-(trifluoromethyl)-1-benzothiophen-2-yl]methyl}amino)phenyl]carbonyl}amino)propanoic acid]
25 | 79 | COCc1nn(-c2ccc(OC(F)(F)F)cc2)cc1C(Nc1ccc(C(=O)N(C)CCC(=O)O)cc1)C1CCCCC1 (stereo not shown) [Example 34, 3-[({4-[(cyclohexyl{3-(methoxymethyl)-1-[4-(trifluoromethoxy)phenyl]-1H-pyrazol-4-yl}methyl)amino]phenyl}carbonyl)(methyl)amino]propanoic acid]
26 | 98 | COc1ccc(-c2ccc3oc(C(Nc4ccc(C(=O)N(C)CCC(=O)O)cc4)C4CCCCC4)c(C)c3c2)cn1 (stereo not shown) [Example A174, 3-[{[4-({cyclohexyl[5-(6-methoxypyridin-3-yl)-3-methyl-1-benzofuran-2-yl]methyl}amino)phenyl]carbonyl}(methyl)amino]propanoic acid]
27 | 53 | COCc1nn(-c2ccccc2)cc1C(Nc1ccc(C(=O)N(C)CCC(=O)O)cc1)C1CCCCC1 (stereo not shown) [Example 38, 3-[{[4-({cyclohexyl[3-(methoxymethyl)-1-phenyl-1H-pyrazol-4-yl]methyl}amino)phenyl]carbonyl}(methyl)amino]propanoic acid]
28 | 63 | CCc1nn(-c2ccc(OC)cc2)cc1C(CC(C)C)Nc1ccc(C(=O)NCCC(=O)O)cc1 (stereo not shown) [Example 48, 3-({[4-({1-[3-ethyl-1-(4-methoxyphenyl)-1H-pyrazol-4-yl]-3-methylbutyl}amino)phenyl]carbonyl}amino)propanoic acid]
29 | 84 | CCC(Nc1ccc(C(=O)N(C)CCC(=O)O)cc1)c1oc2ccc(OCc3ccccc3)cc2c1C (stereo not shown) [Example A179, 3-[{[4-({1-[5-(benzyloxy)-3-methyl-1-benzofuran-2-yl]propyl}amino)phenyl]carbonyl}(methyl)amino]propanoic acid]
30 | 70 | CCCCCCC(Nc1ccc(C(=O)NCCC(=O)O)cc1)c1oc2ccc(OC)cc2c1C (stereo not shown) [Example A118, 3-{[(4-{[1-(5-methoxy-3-methyl-1-benzofuran-2-yl)heptyl]amino}phenyl)carbonyl]amino}propanoic acid]
31 | 86 | Cc1c(C(Nc2ccc(C(=O)NCCC(=O)O)cc2)C(C)C)oc2ccc(OCc3ccccc3)cc12 (stereo not shown) [Example A171, 3-({[4-({1-[5-(benzyloxy)-3-methyl-1-benzofuran-2-yl]-2-methylpropyl}amino)phenyl]carbonyl}amino)propanoic acid]

— patent US8436043B2 (Takeda Pharmaceutical Company Limited, priority 2008, dated 2013)
